Data reported in patent publication US20090075989A1, “NON-STEROIDAL PROGESTERONE RECEPTOR MODULATORS” (priority 2006, published 2009).
pIC50: −log10 of the molar value.

The compounds below were run against T1, progesterone receptor PR (PR-B) (Homo sapiens, UniProt P06401) (assay: Transactivation assay, antagonism on the progesterone receptor PR). Conditions: transactivation test for antagonistic activity on (PR-B).
T1 sequence (P06401 1-933): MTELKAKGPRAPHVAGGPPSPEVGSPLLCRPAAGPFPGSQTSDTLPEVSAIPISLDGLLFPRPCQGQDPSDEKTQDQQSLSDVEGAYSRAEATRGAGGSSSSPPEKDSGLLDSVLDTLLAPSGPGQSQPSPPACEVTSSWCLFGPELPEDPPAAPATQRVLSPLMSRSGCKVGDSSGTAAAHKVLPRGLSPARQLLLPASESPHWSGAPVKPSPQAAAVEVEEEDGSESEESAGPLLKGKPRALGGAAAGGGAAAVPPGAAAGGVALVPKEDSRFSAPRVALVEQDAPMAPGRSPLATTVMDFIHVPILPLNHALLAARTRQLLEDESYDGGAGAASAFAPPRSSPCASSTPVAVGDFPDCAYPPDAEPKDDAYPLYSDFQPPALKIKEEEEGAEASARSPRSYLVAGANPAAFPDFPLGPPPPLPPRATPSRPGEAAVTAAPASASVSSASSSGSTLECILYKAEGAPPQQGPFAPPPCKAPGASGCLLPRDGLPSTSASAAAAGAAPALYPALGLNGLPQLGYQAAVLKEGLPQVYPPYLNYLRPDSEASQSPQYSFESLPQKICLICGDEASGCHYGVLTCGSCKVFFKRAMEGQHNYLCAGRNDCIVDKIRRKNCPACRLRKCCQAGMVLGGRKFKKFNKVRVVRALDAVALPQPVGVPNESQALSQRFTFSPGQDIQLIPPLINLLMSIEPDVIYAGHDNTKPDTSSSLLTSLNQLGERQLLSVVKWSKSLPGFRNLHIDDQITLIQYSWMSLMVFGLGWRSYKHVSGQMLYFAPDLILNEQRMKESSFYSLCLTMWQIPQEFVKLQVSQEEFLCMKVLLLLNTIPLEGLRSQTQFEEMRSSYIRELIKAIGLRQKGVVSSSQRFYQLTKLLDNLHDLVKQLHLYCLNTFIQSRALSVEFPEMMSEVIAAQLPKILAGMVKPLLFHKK
Format: cell-based
Description: Antagonism on the progesterone receptor PR
The transactivation assay is carried out as described in WO 02/054064.

pIC50	Compound
7.52	Cc1noc(=O)c2ccc(NC(=O)C(O)(C#Cc3ccccc3)c3ccccc3)cc12 (racemic) [Example 1b, rac-6-[2,4-diphenyl-2-hydroxybut-3-ynoylamino]-4-methyl-2,3-benzoxazin-1-one]
8.30	Cc1noc(=O)c2ccc(NC(=O)C(O)(Cc3ccccc3)c3ccccc3)cc12 (racemic) [Example 5, rac-6-[2-hydroxy-2,3-diphenylpropionylamino]-4-methyl-2,3-benzoxazin-1-one]
8.30	Cc1noc(=O)c2ccc(NC(=O)C(O)(Cc3ccccc3)c3ccc([N+](=O)[O-])cc3)cc12 (racemic) [Example 10, rac-6-[2-hydroxy-2-(4-nitrophenyl)-3-phenylpropionylamino]-4-methyl-2,3-benzoxazin-1-one]
8.49	Cc1noc(=O)c2ccc(NC(=O)C(O)(Cc3ccccc3)c3ccc(C(C)(C)C)cc3)cc12 (racemic) [Example 45c, rac-6-[2-hydroxy-2-(4-(1,1-dimethylethyl)phenyl)-3-phenylpropionylamino]-4-methyl-2,3-benzoxazin-1-one]
7.30	Cc1noc(=O)c2ccc(NC(=O)C(O)(Cc3ccccc3)c3ccc(N(C)C)cc3)cc12 (racemic) [Example 48d, rac-6-[2-hydroxy-2-(4-dimethylaminophenyl)-3-phenylpropionylamino]-4-methyl-2,3-benzoxazin-1-one]
7.49	CC(=O)c1ccc(C(O)(Cc2ccccc2)C(=O)Nc2ccc3c(=O)onc(C)c3c2)cc1 (racemic) [Example 55f, rac-6-[2-hydroxy-2-(4-acetylphenyl)-3-phenylpropionylamino]-4-methyl-2,3-benzoxazin-1-one]
8.05	Cc1noc(=O)c2ccc(NC(=O)C(O)(Cc3ccccc3)c3cccs3)cc12 (racemic) [Example 64b, rac-6-[2-hydroxy-2-(thiophen-2-yl)-3-phenylpropionylamino]-4-methyl-2,3-benzoxazin-1-one]
7.40	Cc1noc(=O)c2ccc(NC(=O)C(O)(Cc3ccccc3)c3ccc(-c4cccs4)cc3)cc12 (racemic) [Example 75, rac-6-[2-hydroxy-2-(4-thiophen-2-ylphenyl)-3-phenylpropionylamino]-4-methyl-2,3-benzoxazin-1-one]

Compound	pIC50
N#Cc1ccc(NC(=O)C(O)(Cc2ccccc2)c2ccccc2)cc1Cl (racemic) [Example 29b, rac-N-(3-chloro-4-cyanophenyl)-2-hydroxy-2,3-diphenylpropionamide]	7.40
N#Cc1ccc(NC(=O)C(O)(Cc2ccccc2)c2ccccc2)cc1C(F)(F)F (racemic) [Example 34b, rac-N-(4-cyano-3-trifluoromethylphenyl)-2-hydroxy-2,3-diphenylpropionamide]	7.15
COc1ccc(C#CC(O)(C(=O)Nc2ccc(C#N)c(Cl)c2)c2ccccc2)cc1 (racemic) [Example 80]	7.40
